From US9695155B2, “Herbicidal substituted pyrimidinyloxy benzene compounds” (E. I. DU PONT DE NEMOURS AND COMPANY, priority 2013, dated 2017)

Legend:
[1] = tested on: corn; experiment: Test C postemergence; type: in vivo, Zea mays; conditions: Zea mays, post-emergence
How it was run: (§1)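 Sown in loam/sand → sprayed pre-emergence; or grown to 1–4 leaves in peat mix → sprayed post-emergence. Same solvent/surfactant formulation both ways. Greenhouse 13–15 d. Score 0–100 visual.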

[2] = tested on: Italian ryegrass; experiment: Test C postemergence; type: in vivo, Lolium multiflorum
How it was run: as §1

[3] = tested on: velvetleaf; experiment: Test A preemergence; type: in vivo, Abutilon theophrasti
How it was run: (§2)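 Compounds in non-phytotoxic solvent with surfactant applied as soil spray preemergence, or postemergence to plants 2-10 cm at one- to two-leaf stage, in loam/sand. After approximately 10 days in greenhouse, injury rated visually versus untreated controls, 0 (no effect) to 100 (complete control).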

[4] = tested on: pigweed; experiment: Test C postemergence; type: in vivo, Amaranthus retroflexus
How it was run: as §1

[5] = tested on: lambsquarters; experiment: Test C postemergence; type: in vivo, Chenopodium album
How it was run: as §1

[6] = tested on: blackgrass; experiment: Test C preemergence; type: in vivo, Alopecurus myosuroides; conditions: Alopecurus myosuroides, pre-emergence
How it was run: as §1

[7] = tested on: soybean; experiment: Test C preemergence; type: in vivo, Glycine max; conditions: Glycine max, pre-emergence, preemergence, read-out: Soybean plant response rating
How it was run: as §1

[8] = tested on: barnyardgrass; experiment: Test C postemergence; type: in vivo, Echinochloa crus-galli; conditions: Echinochloa crus-galli, post-emergence
How it was run: as §1

[9] = tested on: morningglory; experiment: Test C preemergence; type: in vivo, Ipomoea coccinea; conditions: Ipomoea, pre-emergence, preemergence, read-out: Morningglory plant response rating
How it was run: as §1

[10] = tested on: waterhemp; experiment: Test C preemergence; type: in vivo, Amaranthus rudis; conditions: Amaranthus tuberculatus, pre-emergence, preemergence, read-out: Waterhemp plant response rating
How it was run: as §1

[11] = tested on: waterhemp; experiment: Test C postemergence; type: in vivo, Amaranthus rudis
How it was run: as §1

[12] = tested on: ragweed; experiment: Test C preemergence; type: in vivo, Ambrosia elatior; conditions: Ambrosia artemisiifolia, pre-emergence, preemergence, read-out: Ragweed plant response rating
How it was run: as §1

[13] = tested on: barnyardgrass; experiment: Test C preemergence; type: in vivo, Echinochloa crus-galli; conditions: Echinochloa crus-galli, pre-emergence
How it was run: as §1

[14] = tested on: blackgrass; experiment: Test C postemergence; type: in vivo, Alopecurus myosuroides; conditions: Alopecurus myosuroides, post-emergence
How it was run: as §1

[15] = tested on: corn; experiment: Test C preemergence; type: in vivo, Zea mays; conditions: Zea mays, pre-emergence
How it was run: as §1

[16] = tested on: barnyardgrass; experiment: Test A preemergence; type: in vivo, Echinochloa crus-galli; conditions: Echinochloa crus-galli, pre-emergence, 240 h, 0 to 100 scale where 0 is no effect and 100 is complete control
How it was run: as §2

[17] = tested on: giant foxtail; experiment: Test A preemergence; type: in vivo, Setaria faberii; conditions: Setaria faberi, pre-emergence, 240 h, 0 to 100 scale where 0 is no effect and 100 is complete control
How it was run: as §2

[18] = tested on: oilseed rape; experiment: Test C preemergence; type: in vivo, Brassica napus; conditions: Brassica napus, pre-emergence, preemergence, read-out: Oilseed Rape plant response rating
How it was run: as §1

[19] = 31 g ai/ha, postemergence, visual rating, scale 0 to 100 (0 no effect, 100 complete control), 13 to 15 days
[20] = 16 g ai/ha, scale 0 to 100 (0 no effect, 100 complete control)
[21] = 62 g ai/ha, scale 0 (no effect) to 100 (complete control)
[22] = 125 g ai/ha, scale 0 (no effect) to 100 (complete control)

For FC(F)(F)c1cn(-c2ccccc2Oc2ncc(Cl)cn2)nn1 [Compound 166, 5-chloro-2-[2-[4-(trifluoromethyl)-1H-1,2,3-triazol-1-yl]phenoxy]pyrimidine], the plant injury at 16 g/ha ([1]; 16 g ai/ha, postemergence, 0 is no effect, 100 is complete control, read-out: Plant response rating (0 to 100), Corn) was 5%, the plant injury at 31 g/ha ([1]; 31 g ai/ha, postemergence, visual rating, scale 0 to 100 (0 no effect, 100 complete control), 13 to 15 days, read-out: Corn plant response rating) was 5% and the Corn plant response rating (crop injury, 0 = no effect, 100 = complete kill) at 125 g/ha ([1]; 125 g ai/ha, postemergence, visual rating, scale 0 to 100 (0 no effect, 100 complete control)) was 15%. For the same molecule, the Corn plant response rating (crop injury, 0 = no effect, 100 = complete kill) at 62 g/ha ([1]; Postemergence, 62 g ai/ha, scale 0 to 100 (0 no effect, 100 complete control)) was 10%, the “Ryegrass, Italian plant response rating” value [2, 19] was 5 and the pest or weed control at 16 g/ha ([2]; Lolium multiflorum, post-emergence, 16 g ai/ha, postemergence, 0 is no effect, 100 is complete control, read-out: Plant response rating (0 to 100), Ryegrass, Italian) was 0%. The pest or weed control at 125 g/ha ([2]; Lolium multiflorum, post-emergence, 125 g ai/ha, postemergence, visual rating, scale 0 to 100 (0 no effect, 100 complete control), read-out: Plant response rating, Ryegrass, Italian) was 30%, the pest or weed control at 62 g/ha ([2]; Lolium multiflorum, post-emergence, Postemergence, 62 g ai/ha, scale 0 to 100 (0 no effect, 100 complete control), read-out: Plant response rating, Ryegrass, Italian) was 15% and the “Velvetleaf plant response rating (0 to 100 scale)” value ([3]; 125 g ai/ha) was 100. The pest or weed control at 500 g/ha ([3]; Abutilon theophrasti, pre-emergence, 240 h, 500 g ai/ha, 0 to 100 scale where 0 is no effect and 100 is complete control, read-out: Velvetleaf plant response rating) was 100%, the “Pigweed plant response rating” value [4, 19] was 85 and the pest or weed control at 16 g/ha ([4]; Amaranthus retroflexus, post-emergence, 16 g ai/ha, postemergence, 0 is no effect, 100 is complete control, read-out: Plant response rating (0 to 100), Pigweed) was 80%. For the same molecule, the pest or weed control at 125 g/ha ([4]; Amaranthus retroflexus, post-emergence, 125 g ai/ha, postemergence, visual rating, scale 0 to 100 (0 no effect, 100 complete control), read-out: Plant response rating, Pigweed) was 98%, the pest or weed control at 62 g/ha ([4]; Amaranthus retroflexus, post-emergence, Postemergence, 62 g ai/ha, scale 0 to 100 (0 no effect, 100 complete control), read-out: Plant response rating, Pigweed) was 90% and the “Lambsquarters plant response rating” value [5, 19] was 80. The pest or weed control at 16 g/ha ([5]; Chenopodium album, post-emergence, 16 g ai/ha, postemergence, 0 is no effect, 100 is complete control, read-out: Plant response rating (0 to 100), Lambsquarters) was 40%, the pest or weed control at 125 g/ha ([5]; Chenopodium album, post-emergence, 125 g ai/ha, postemergence, visual rating, scale 0 to 100 (0 no effect, 100 complete control), read-out: Plant response rating, Lambsquarters) was 98% and the pest or weed control at 62 g/ha ([5]; Chenopodium album, post-emergence, Postemergence, 62 g ai/ha, scale 0 to 100 (0 no effect, 100 complete control), read-out: Plant response rating, Lambsquarters) was 95%. For the same molecule, the pest or weed control at 16 g/ha ([6]; 16 g ai/ha, preemergence, scale 0 to 100 (0 no effect, 100 complete control), read-out: Blackgrass plant response rating) was 40%, the pest or weed control at 62 g/ha ([6]; 62 g ai/ha, preemergence, scale 0 (no effect) to 100 (complete control), read-out: Blackgrass plant response rating) was 90% and the pest or weed control at 125 g/ha ([6]; 125 g ai/ha, preemergence, scale 0 (no effect) to 100 (complete control), read-out: Blackgrass plant response rating) was 100%. The pest or weed control at 31 g/ha ([6]; Preemergence, 31 g ai/ha, scale 0 to 100, 0 no effect, 100 complete control, read-out: Plant response rating, Blackgrass) was 85%, the plant injury at 16 g/ha [7, 20] was 60% and the plant injury at 62 g/ha [7, 21] was 95%. It also gave a plant injury at 125 g/ha [7, 22] of 95%, a pest or weed control at 16 g/ha ([8]; 16 g ai/ha, postemergence, 0 is no effect, 100 is complete control, read-out: Plant response rating (0 to 100), Barnyardgrass) of 5% and a pest or weed control at 31 g/ha ([8]; 31 g ai/ha, postemergence, visual rating, scale 0 to 100 (0 no effect, 100 complete control), 13 to 15 days, read-out: Barnyardgrass plant response rating) of 10%. For the same molecule, the pest or weed control at 125 g/ha ([8]; 125 g ai/ha, postemergence, visual rating, scale 0 to 100 (0 no effect, 100 complete control), read-out: Plant response rating, Barnyardgrass) was 15%, the pest or weed control at 62 g/ha ([8]; Postemergence, 62 g ai/ha, scale 0 to 100 (0 no effect, 100 complete control), read-out: Plant response rating, Barnyardgrass) was 10% and the pest or weed control at 16 g/ha [9, 20] was 15%. The pest or weed control at 62 g/ha [9, 21] was 98%, the pest or weed control at 125 g/ha [9, 22] was 100% and the pest or weed control at 16 g/ha [10, 20] was 100%. For the same molecule, the pest or weed control at 62 g/ha [10, 21] was 100%, the pest or weed control at 125 g/ha [10, 22] was 100% and the “Waterhemp plant response rating” value [11, 19] was 85. The pest or weed control at 16 g/ha ([11]; Amaranthus tuberculatus, post-emergence, 16 g ai/ha, postemergence, 0 is no effect, 100 is complete control, read-out: Plant response rating (0 to 100), Waterhemp) was 75%, the pest or weed control at 125 g/ha ([11]; Amaranthus tuberculatus, post-emergence, 125 g ai/ha, postemergence, visual rating, scale 0 to 100 (0 no effect, 100 complete control), read-out: Plant response rating, Waterhemp) was 90% and the pest or weed control at 62 g/ha ([11]; Amaranthus tuberculatus, post-emergence, Postemergence, 62 g ai/ha, scale 0 to 100 (0 no effect, 100 complete control), read-out: Plant response rating, Waterhemp) was 90%. The pest or weed control at 16 g/ha [12, 20] was 50%, the pest or weed control at 62 g/ha [12, 21] was 95% and the pest or weed control at 125 g/ha [12, 22] was 95%. The pest or weed control at 16 g/ha ([13]; 16 g ai/ha, preemergence, scale 0 to 100 (0 no effect, 100 complete control), read-out: Barnyardgrass plant response rating) was 85%, the pest or weed control at 62 g/ha ([13]; 62 g ai/ha, preemergence, scale 0 (no effect) to 100 (complete control), read-out: Barnyardgrass plant response rating) was 100% and the pest or weed control at 125 g/ha ([13]; 125 g ai/ha, preemergence, scale 0 (no effect) to 100 (complete control), read-out: Barnyardgrass plant response rating) was 100%. It also gave a pest or weed control at 31 g/ha ([13]; Preemergence, 31 g ai/ha, scale 0 to 100, 0 no effect, 100 complete control, read-out: Plant response rating, Barnyardgrass) of 100%, a pest or weed control at 16 g/ha ([14]; 16 g ai/ha, postemergence, 0 is no effect, 100 is complete control, read-out: Plant response rating (0 to 100), Blackgrass) of 5% and a pest or weed control at 31 g/ha ([14]; 31 g ai/ha, postemergence, visual rating, scale 0 to 100 (0 no effect, 100 complete control), 13 to 15 days, read-out: Blackgrass plant response rating) of 10%. It also gave a pest or weed control at 125 g/ha ([14]; 125 g ai/ha, postemergence, visual rating, scale 0 to 100 (0 no effect, 100 complete control), read-out: Plant response rating, Blackgrass) of 60%, a pest or weed control at 62 g/ha ([14]; Postemergence, 62 g ai/ha, scale 0 to 100 (0 no effect, 100 complete control), read-out: Plant response rating, Blackgrass) of 45% and a plant injury at 16 g/ha ([15]; 16 g ai/ha, preemergence, scale 0 to 100 (0 no effect, 100 complete control), read-out: Corn plant response rating) of 0%. It also gave a plant injury at 62 g/ha ([15]; 62 g ai/ha, preemergence, scale 0 (no effect) to 100 (complete control), read-out: Corn plant response rating) of 40%, a plant injury at 125 g/ha ([15]; 125 g ai/ha, preemergence, scale 0 (no effect) to 100 (complete control), read-out: Corn plant response rating) of 80% and a Corn plant response rating (crop injury, 0 = no effect, 100 = complete kill) at 31 g/ha ([15]; Preemergence, 31 g ai/ha, scale 0 to 100, 0 no effect, 100 complete control) of 25%. The pest or weed control at 125 g/ha ([16]; 125 g ai/ha, read-out: Plant response rating, Barnyardgrass) was 90%, the pest or weed control at 500 g/ha ([16]; 500 g ai/ha, read-out: Barnyardgrass plant response rating) was 100% and the pest or weed control at 125 g/ha ([17]; 125 g ai/ha, read-out: Plant response rating, Foxtail, Giant) was 100%. For the same molecule, the pest or weed control at 500 g/ha ([17]; 500 g ai/ha, read-out: Foxtail, Giant plant response rating) was 100%, the plant injury at 16 g/ha [18, 20] was 90% and the plant injury at 62 g/ha [18, 21] was 100%. The plant injury at 125 g/ha [18, 22] was 100%.
